According to PubChem BioAssay (NCI):
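Each compound was tested at five concentrations against cells in 96-well plates for 48 hours. TGI marks complete inhibition of growth.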

What was measured:
Test in all cases: NCI tumour cell line growth inhibition, 48 h
[1] = test system: TK-10 renal
[2] = test system: HL-60(TB) leukemia
[3] = test system: SK-OV-3 ovarian
[4] = test system: M19-MEL melanoma
[5] = test system: UACC-257 melanoma
[6] = test system: EKVX NSCLC
[7] = test system: DMS 114 small cell lung
[8] = test system: SK-MEL-5 melanoma
[9] = test system: NCI-H460 lung
[10] = test system: CCRF-CEM leukemia
[11] = test system: SR leukemia
[12] = test system: NCI-H226 lung
[13] = test system: UACC-62 melanoma
[14] = test system: OVCAR-4 ovarian
[15] = test system: OVCAR-5 ovarian
[16] = test system: ACHN renal
[17] = test system: HT29 colon
[18] = test system: MALME-3M melanoma
[19] = test system: HCC-2998 colon
[20] = test system: SW-620 colon
[21] = test system: SK-MEL-28 melanoma
[22] = test system: DMS 273 small cell lung
[23] = test system: A549 NSCLC
[24] = test system: SK-MEL-2 melanoma
[25] = test system: SF-295 CNS
[26] = test system: 786-0 renal
[27] = test system: XF 498 CNS
[28] = test system: U251 CNS
[29] = test system: OVCAR-8 ovarian
[30] = test system: HOP-92 NSCLC
[31] = test system: LOX IMVI melanoma
[32] = test system: HOP-18 NSCLC
[33] = test system: SNB-78 CNS
[34] = test system: COLO 205 colon
[35] = test system: SNB-19 CNS
[36] = test system: LXFL 529 NSCLC
[37] = test system: KM12 colon
[38] = test system: HOP-62 NSCLC
[39] = test system: K-562 leukemia
[40] = test system: NCI-H23 lung
[41] = test system: DLD-1 colon
[42] = test system: CAKI-1 renal
[43] = test system: RXF 393 renal
[44] = test system: NCI-H522 lung
[45] = test system: SN12C renal
[46] = test system: SF-268 CNS
[47] = test system: IGROV1 ovarian
[48] = test system: A498 renal
[49] = test system: MOLT-4 leukemia
[50] = test system: UO-31 renal
[51] = test system: SF-539 CNS
[52] = test system: OVCAR-3 ovarian
[53] = test system: KM20L2 colon
[54] = test system: HCT-116 colon
[55] = test system: HCT-15 colon
[56] = test system: M14 melanoma
[57] = test system: SNB-75 CNS
[58] = test system: RPMI-8226 leukemia

Measured: TGI

N=c1c2ccccc2sc2nc3ccccc3n12
> 100 µM: [1] | [2] | [3] | [4] | [5] | [6] | [7] | [8] | [9] | [10] | [11] | [12] | [13] | [14] | [15] | [16] | [17] | [18] | [19] | [20] | [21] | [22] | [23] | [24] | [25] | [26] | [27] | [28] | [29] | [30] | [31] | [32] | [33] | [34] | [35] | [36] | [37] | [38] | [39] | [40] | [41] | [42] | [43] | [44] | [45] | [46] | [47] | [48] | [49] | [50] | [51]

CCOc1ccc(N=C2NC(=O)C(CC(=O)Nc3ccccc3[N+](=O)[O-])S2)cc1 (centres undefined)
> 100 µM: [1] | [2] | [52] | [4] | [5] | [6] | [53] | [7] | [8] | [9] | [10] | [11] | [12] | [54] | [13] | [14] | [15] | [16] | [17] | [18] | [19] | [55] | [20] | [21] | [22] | [23] | [24] | [25] | [26] | [27] | [28] | [29] | [30] | [31] | [33] | [35] | [36] | [56] | [39] | [40] | [41] | [42] | [43] | [57] | [44] | [45] | [46] | [58] | [47] | [48] | [49] | [50] | [51]
